In ChEMBL document CHEMBL1201862, “PubChem BioAssay data set” (2004):
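Following 48 hours of exposure in 96-well plates, responses at five concentrations were used to interpolate endpoints linearly. GI50 = concentration required for 50% inhibition of growth.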 The source made the active and inactive calls. Rule as the data show it: active = GI50 up to about 1.1 µM and inactive = higher.

Legend:
Test in all cases: NCI-60 cell line screen, 48 h
OVCAR-5 = tested on: OVCAR-5
MOLT-4 = tested on: MOLT-4
UACC-257 = tested on: UACC-257
IGROV-1 = tested on: IGROV-1
RXF 393 = tested on: RXF 393
KM12 = tested on: KM12
SF-539 = tested on: SF-539
ACHN = tested on: ACHN
SK-OV-3 = tested on: SK-OV-3
NCI-H226 = tested on: NCI-H226
SK-MEL-28 = tested on: SK-MEL-28
UACC-62 = tested on: UACC-62
Malme-3M = tested on: Malme-3M
TK-10 = tested on: TK-10
OVCAR-4 = tested on: OVCAR-4
SK-MEL-5 = tested on: SK-MEL-5
NCI-H522 = tested on: NCI-H522
HOP-92 = tested on: HOP-92
A498 = tested on: A498

| SMILES | GI50 (OVCAR-5) | GI50 (MOLT-4) | GI50 (UACC-257) | GI50 (IGROV-1) | GI50 (RXF 393) | GI50 (KM12) | GI50 (SF-539) | GI50 (ACHN) | GI50 (SK-OV-3) | GI50 (NCI-H226) | GI50 (SK-MEL-28) | GI50 (UACC-62) | GI50 (Malme-3M) | GI50 (TK-10) | GI50 (OVCAR-4) | GI50 (SK-MEL-5) | GI50 (NCI-H522) | GI50 (HOP-92) | GI50 (A498) |
| --- | --- | --- | --- | --- | --- | --- | --- | --- | --- | --- | --- | --- | --- | --- | --- | --- | --- | --- | --- |
| O=C1C(=Cc2ccc([N+](=O)[O-])o2)C(=O)N(CCc2ccccc2)S(=O)(=O)N1CCc1ccccc1 | > 100 µM (inactive) | 19.2 µM (inactive) | 63 µM (inactive) | > 100 µM (inactive) | 19.5 µM (inactive) | > 100 µM (inactive) | 38.1 µM (inactive) | 17.1 µM (inactive) | > 100 µM (inactive) | 24.7 µM (inactive) | 14.6 µM (inactive) | 16.9 µM (inactive) | 17.1 µM (inactive) | 42.2 µM (inactive) | 16.3 µM (inactive) | 18.7 µM (inactive) | 19.9 µM (inactive) | 19.3 µM (inactive) |  |
| NNC(=O)Cn1ccnn1 | > 100 µM (inactive) | > 100 µM (inactive) | > 100 µM (inactive) | > 100 µM (inactive) |  | > 100 µM (inactive) |  | > 100 µM (inactive) |  |  | > 100 µM (inactive) |  | > 100 µM (inactive) | > 100 µM (inactive) |  | > 100 µM (inactive) | > 100 µM (inactive) | > 100 µM (inactive) |  |
| CN1N=C2NCCNC3=NN(C)/C(=N/CC/N=C/1S2)S3 | > 100 µM (inactive) | > 100 µM (inactive) | > 100 µM (inactive) | > 100 µM (inactive) | > 100 µM (inactive) | > 100 µM (inactive) | > 100 µM (inactive) | > 100 µM (inactive) |  | > 100 µM (inactive) | > 100 µM (inactive) | > 100 µM (inactive) |  |  | > 100 µM (inactive) | > 100 µM (inactive) | > 100 µM (inactive) | > 100 µM (inactive) | > 100 µM (inactive) |
| NNC(=O)c1ccc(-n2nnc(C(=O)NN)c2C(=O)NN)cc1 | > 100 µM (inactive) | > 100 µM (inactive) | > 100 µM (inactive) |  |  | > 100 µM (inactive) |  | > 100 µM (inactive) |  |  | > 100 µM (inactive) |  | > 100 µM (inactive) | > 100 µM (inactive) | > 100 µM (inactive) | > 100 µM (inactive) |  | > 100 µM (inactive) |  |
| C=C[C@@]1(O)CCCC2=C(C(=O)OCC)CC[C@]21C | > 100 µM (inactive) | 26.1 µM (inactive) | > 100 µM (inactive) | > 100 µM (inactive) | > 100 µM (inactive) | > 100 µM (inactive) | > 100 µM (inactive) | > 100 µM (inactive) | > 100 µM (inactive) | > 100 µM (inactive) | > 100 µM (inactive) |  | > 100 µM (inactive) | > 100 µM (inactive) |  | 38.1 µM (inactive) | > 100 µM (inactive) | > 100 µM (inactive) |  |
| COc1cc2c(cc1O)[C@@]1(Cc3ccc(OC)c(OC)c3)CCC(=O)N1CC2 | > 100 µM (inactive) | 52 µM (inactive) | > 100 µM (inactive) | > 100 µM (inactive) | > 100 µM (inactive) | > 100 µM (inactive) | > 100 µM (inactive) | > 100 µM (inactive) |  | > 100 µM (inactive) | > 100 µM (inactive) | > 100 µM (inactive) | 68.4 µM (inactive) | > 100 µM (inactive) | > 100 µM (inactive) | > 100 µM (inactive) |  | 39.8 µM (inactive) | > 100 µM (inactive) |
| O=c1ccn([C@@H]2C[C@H](CO)C[S+]([O-])C2)c(=O)[nH]1 (stereo not given in full) |  | > 100 µM (inactive) | > 100 µM (inactive) | > 100 µM (inactive) |  | > 100 µM (inactive) | > 100 µM (inactive) | > 100 µM (inactive) | > 100 µM (inactive) | > 100 µM (inactive) | > 100 µM (inactive) | > 100 µM (inactive) | > 100 µM (inactive) | > 100 µM (inactive) | > 100 µM (inactive) | > 100 µM (inactive) | > 100 µM (inactive) | > 100 µM (inactive) | > 100 µM (inactive) |
| Cc1cc(C)c(C2[C@H]3C(=O)N(c4ccc(Cc5ccc(N6C(=O)[C@@H]7ON(c8ccccc8)C(c8c(C)cc(C)cc8C)[C@@H]7C6=O)cc5)cc4)C(=O)[C@H]3ON2c2ccccc2)c(C)c1 (stereo not given in full) | > 100 µM (inactive) | > 100 µM (inactive) | > 100 µM (inactive) | > 100 µM (inactive) | 44.1 µM (inactive) | > 100 µM (inactive) | > 100 µM (inactive) | > 100 µM (inactive) | > 100 µM (inactive) | > 100 µM (inactive) | > 100 µM (inactive) | > 100 µM (inactive) | > 100 µM (inactive) | > 100 µM (inactive) | > 100 µM (inactive) | > 100 µM (inactive) | > 100 µM (inactive) |  | > 100 µM (inactive) |
| C[C@@H](C[C@@H](O)[C@H](O)C(C)(C)O)[C@H]1CC=C2[C@]3(C)[C@H](O)C[C@H]4C(C)(C)[C@H](O)CC[C@]4(C)[C@H]3CC[C@@]21C | 19.2 µM (inactive) | 11.1 µM (inactive) | 16.1 µM (inactive) | 16.3 µM (inactive) | 17 µM (inactive) | 15.7 µM (inactive) | 18.1 µM (inactive) | 14.3 µM (inactive) |  | 20.7 µM (inactive) | 14.4 µM (inactive) |  | 14.3 µM (inactive) | 18 µM (inactive) | 14.4 µM (inactive) | 14.2 µM (inactive) | 14 µM (inactive) | 13.9 µM (inactive) | 15.2 µM (inactive) |
| COc1cc(C)c(O)c(C(=O)O)c1 | > 100 µM (inactive) | > 100 µM (inactive) | > 100 µM (inactive) | > 100 µM (inactive) | > 100 µM (inactive) | > 100 µM (inactive) |  | > 100 µM (inactive) | > 100 µM (inactive) | > 100 µM (inactive) | > 100 µM (inactive) | > 100 µM (inactive) | > 100 µM (inactive) | > 100 µM (inactive) | > 100 µM (inactive) | > 100 µM (inactive) | > 100 µM (inactive) |  | > 100 µM (inactive) |
| C[C@]1(CO)CCC[C@@]2(C)C1CC[C@H]1CC3C[C@]12CC[C@]3(C)O (stereo not given in full) | > 100 µM (inactive) | 2.77 µM (inactive) | 54.2 µM (inactive) | > 10 µM (inactive) | 46.7 µM (inactive) | > 100 µM (inactive) | 57.7 µM (inactive) | 74.6 µM (inactive) | > 100 µM (inactive) | > 100 µM (inactive) | > 100 µM (inactive) | > 100 µM (inactive) | > 100 µM (inactive) | 37.5 µM (inactive) | 46.1 µM (inactive) | 17.9 µM (inactive) | 16.3 µM (inactive) | > 100 µM (inactive) |  |
| C=CC1(NS(=O)(=O)c2ccc(C)cc2)CCC(C(C)(C)C)CC1 (stereo not given) |  | > 100 µM (inactive) | > 100 µM (inactive) | 76.2 µM (inactive) | 8.97 µM (inactive) | > 100 µM (inactive) | 64 µM (inactive) | 65.3 µM (inactive) | 34.4 µM (inactive) | > 100 µM (inactive) | > 100 µM (inactive) | 28.5 µM (inactive) | 82.2 µM (inactive) | 88.5 µM (inactive) | 91.6 µM (inactive) | > 100 µM (inactive) | 32.7 µM (inactive) |  | > 100 µM (inactive) |
| CC1CCN(CCC(=O)CC(c2ccccc2)c2c(O)c3ccccc3oc2=O)CC1 (stereo not given) |  | > 100 µM (inactive) | > 100 µM (inactive) | > 100 µM (inactive) | > 100 µM (inactive) | > 100 µM (inactive) | > 100 µM (inactive) | > 100 µM (inactive) | > 100 µM (inactive) | 80 µM (inactive) | > 100 µM (inactive) | > 100 µM (inactive) |  | > 100 µM (inactive) | > 100 µM (inactive) | > 100 µM (inactive) | > 100 µM (inactive) |  | > 100 µM (inactive) |
| CCOC(=O)Oc1c(OC)cc(C(=O)NC2CCc3cc(OC)c(OC)c(OC)c3-c3ccc(SC)c(=O)cc32)cc1OC (stereo not given) |  | 0.157 µM (active) | 0.0743 µM (active) | 0.0506 µM (active) |  | 0.0378 µM (active) | 0.0245 µM (active) | 0.537 µM (active) | 0.0513 µM (active) | 0.0471 µM (active) | 20.7 µM (inactive) | 0.0528 µM (active) | 0.204 µM (active) | 0.474 µM (active) | 0.789 µM (active) | 0.0456 µM (active) | < 0.007 µM (active) | 0.0728 µM (active) | 0.223 µM (active) |
| O=C1CCCN(c2ccccc2)N1 | > 100 µM (inactive) | > 100 µM (inactive) | > 100 µM (inactive) | > 100 µM (inactive) | > 100 µM (inactive) | > 100 µM (inactive) | > 100 µM (inactive) | > 100 µM (inactive) | > 100 µM (inactive) | > 100 µM (inactive) | > 100 µM (inactive) | > 100 µM (inactive) | > 100 µM (inactive) |  | > 100 µM (inactive) | > 100 µM (inactive) | > 100 µM (inactive) |  | > 100 µM (inactive) |
| COc1cc([C@@H]2c3cc4c(cc3C(N)C3COC(=O)[C@@H]32)OCO4)cc(OC)c1O (stereo not given in full) |  | 0.266 µM (active) | 0.232 µM (active) | 0.515 µM (active) | 0.049 µM (active) |  | 0.189 µM (active) | 0.146 µM (active) |  | 0.292 µM (active) |  | 0.037 µM (active) |  | 0.401 µM (active) | 0.71 µM (active) | 0.244 µM (active) |  |  |  |
